Measured values as given in US12281125B2, “Rapamycin derivatives” (NOVARTIS AG, priority 2018, dated 2025).
pIC50, pKd: −log10 of the molar value.

Legend:
[1] = tested on: mTORc1 signaling, pS6 (Ser240/244) in MEF TSCl−/− cells; assay: Cell-based assay for rapalog potency (pS6) in MEF TSCl−/− cells; settings: Mus musculus, 2 hours treatment, average from multiple assays
Protocol: Rapalog potency was determined using MEF TSCl−/− cell based assay. MEF TSCl−/− cells are Mouse Embryonic Fibroblasts deficient in Tuberous sclerosis protein—TSCl, which negatively regulates mTORc1 signaling and thus display constitutive mTORc1 activation, resulting in phosphorylation (activation) of downstream molecules. This cell-based assay is used to measure inhibition (de-phosphorylation) of S6 and 4EBP1 by rapalogs or other mTOR inhibitors.
MEF TSCl−/− cells were plated on Poly-D-lysine coated 384 well Griener clear bottom plates and incubated overnight at 37° C., 5% CO2. On the following day, cells were washed 8 times with “Hard starve” solution (1 L DPBS+1 g D-(+) glucose+10 ml of 7.5% Sodium Bicarbonate+20 ml of 1M HEPES) and incubated for further 2 hours in the same solution. Cells were next treated with compounds with decreasing concentrations (8 points at 3.16 fold dilutions) and incubated for 2 hours at 37° C., 5% CO2. Cells were fixed with 4% paraformaldehyde for 30 min and washed 5 times with TBS-EDTA followed by immuno-staining with fluorescent tag labeled antibodies for pS6 (Ser240/244) (Cell Signaling #9468) and p4EBP1 (Thr 37/46) (Cell Signaling #5123). Nuclei were visualized with Hoechst (ThermoFisher Scientific #H3570) staining. Cells were imaged (InCell 600) using respective fluorescence channels and the potency of mTOR inhibitors was defined by pS6 IC50 (nM).
In vitro potency of mTOR inhibitors was defined by pS6 IC50 (nM) in MEF TSCl−/− cells.
IC50 values are calculated as the average from multiple assays.

[2] = molecular target: T1, FKBP12 (Homo sapiens, UniProt P62942); assay: SPR assay, binding affinity to FKBP12; settings: equilibrium dissociation constant
T1 construct: made in house; host or cells: E. coli
T1 sequence (P62942 whole entry): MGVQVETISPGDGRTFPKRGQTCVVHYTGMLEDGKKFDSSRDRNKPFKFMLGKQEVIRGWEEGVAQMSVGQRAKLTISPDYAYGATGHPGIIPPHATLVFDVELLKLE
Source text: (§1) N-terminal avi-his6-tagged FKBP fusion proteins were expressed in E. coli and purified with nickel chromatography using standard procedures. Biotinylated his-avi-FKBPs were immobilized on a streptavidin chip using a Biacore 8K (GE Healthcare). […] The single-cycle kinetics data were fit to a 1:1 binding model to measure the association rate ka (1/Ms), the dissociation rate kd (1/s) and the affinity KD (M). […] The single-cycle kinetics data was fit to a 1:1 binding model to measure the association rate ka (1/Ms), the dissociation rate kd (1/s) and the apparent affinity KD (M) for ternary complex formation. The equilibrium dissociation constants (KD) to FKBP12, FKBP51, and FKBP52 are shown below in Table 6.

[3] = molecular target: T2, FKBP52 (Homo sapiens, UniProt Q02790); assay: SPR assay, binding affinity to FKBP52; settings: equilibrium dissociation constant
T2 construct: made in house; host or cells: E. coli
T2 sequence (Q02790 1-459): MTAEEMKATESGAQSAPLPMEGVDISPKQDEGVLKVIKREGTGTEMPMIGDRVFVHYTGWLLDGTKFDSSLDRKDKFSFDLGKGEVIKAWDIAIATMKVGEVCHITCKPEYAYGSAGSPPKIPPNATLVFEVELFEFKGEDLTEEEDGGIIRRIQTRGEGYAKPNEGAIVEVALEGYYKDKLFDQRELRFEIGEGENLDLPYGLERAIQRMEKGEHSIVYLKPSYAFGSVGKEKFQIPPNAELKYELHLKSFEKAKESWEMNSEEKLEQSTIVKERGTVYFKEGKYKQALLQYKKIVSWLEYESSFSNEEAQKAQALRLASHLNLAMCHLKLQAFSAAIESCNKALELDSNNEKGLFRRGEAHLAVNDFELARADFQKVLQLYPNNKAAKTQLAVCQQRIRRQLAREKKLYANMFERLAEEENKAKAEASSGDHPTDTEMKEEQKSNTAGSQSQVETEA
Protocol: N-terminal avi-his6-tagged FKBP fusion proteins were expressed in E. coli and purified with nickel chromatography using standard procedures. Biotinylated his-avi-FKBPs were immobilized on a streptavidin chip using a Biacore 8K (GE Healthcare). To determine the kinetics-affinity of the rapalogs for FKBPs, rapalogs were diluted in DMSO to 50× working concentration. Next, 3.1 uLs of each rapalog solution was added to 150 uLs of buffer (50 mM Tris pH 7.5/150 mM NaCl/0.01% Tween 20/1 mM DTT) in a 384 deep well plate (greiner bio-one/78127) and mixed using a Biomek FX. The rapalog solution gradients (6 concentrations/2 fold dilutions, 3.1-100 nM or 31-1000 nM or 310-10000 nM) were then injected at 45 uL/min for 120 seconds: contact time and dissociation time was 1800 seconds in running buffer (50 mM Tris pH 7.5/150 mM NaCl/0.01% Tween 20/1 mM DTT/2% DMSO). The single-cycle kinetics data were fit to a 1:1 binding model to measure the association rate ka (1/Ms), the dissociation rate kd (1/s) and the affinity KD (M). […] 3.1 uLs of the 500 μM rapalog solutions were added to 150 uLs of the mTOR samples in a 384 deep well plate (greiner bio-one/78127) and mixed using a Biomek FX. The mTOR solution gradients were then injected at 45 uL/min for 120 seconds: contact time and dissociation time was 1800 seconds in running buffer (50 mM Tris pH 7.5/150 mM NaCl/0.01% Tween 20/1 mM DTT/2% DMSO). The single-cycle kinetics data was fit to a 1:1 binding model to measure the association rate ka (1/Ms), the dissociation rate kd (1/s) and the apparent affinity KD (M) for ternary complex formation.
The equilibrium dissociation constants (KD) to FKBP12, FKBP51, and FKBP52 are shown below in Table 6.

[4] = molecular target: T3, FKBP51 (Homo sapiens, UniProt Q13451); assay: SPR assay, binding affinity to FKBP51; settings: equilibrium dissociation constant
T3 construct: made in house; host or cells: E. coli
T3 sequence (Q13451 1-457): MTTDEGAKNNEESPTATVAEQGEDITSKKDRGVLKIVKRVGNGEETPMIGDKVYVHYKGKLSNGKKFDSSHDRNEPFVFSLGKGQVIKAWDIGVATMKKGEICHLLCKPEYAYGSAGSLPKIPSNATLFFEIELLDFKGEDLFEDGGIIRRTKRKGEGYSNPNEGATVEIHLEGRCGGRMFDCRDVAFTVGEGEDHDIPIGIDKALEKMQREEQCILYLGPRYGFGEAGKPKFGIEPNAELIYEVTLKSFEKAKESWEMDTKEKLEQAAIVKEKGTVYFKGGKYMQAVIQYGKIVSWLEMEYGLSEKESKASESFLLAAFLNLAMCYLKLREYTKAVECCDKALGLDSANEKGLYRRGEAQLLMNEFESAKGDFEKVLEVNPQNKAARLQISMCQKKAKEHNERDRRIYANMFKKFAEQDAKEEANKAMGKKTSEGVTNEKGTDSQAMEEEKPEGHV
Source text: as §1

Structure (SMILES)	pIC50 [1]	pKd [2]	pKd [3]	pKd [4]
CO[C@@H]1C[C@H](C[C@@H](C)[C@@H]2CC[C@H](C)/C=C(\C)[C@@H](O)[C@@H](OC)C(=O)[C@H](C)C[C@H](C)/C=C/C=C/C=C(\C)C(N(C)S(C)(=O)=O)C[C@@H]3CC[C@@H](C)[C@@](O)(O3)C(=O)C(=O)N3CCCC[C@H]3C(=O)O2)CC[C@H]1O (single isomer, unassigned) [Compound 42]	9.52	8.19	5.86	5.91
CO[C@@H]1C[C@H](C[C@@H](C)[C@@H]2CC[C@H](C)/C=C(\C)[C@@H](O)[C@@H](OC)C(=O)[C@H](C)C[C@H](C)/C=C/C=C/C=C(\C)[C@H](NS(C)(=O)=O)C[C@@H]3CC[C@@H](C)[C@@](O)(O3)C(=O)C(=O)N3CCCC[C@H]3C(=O)O2)CC[C@H]1O [Compound 1]	9.26	10.21	8.01	7.96
CCS(=O)(=O)N[C@H]1C[C@@H]2CC[C@@H](C)[C@@](O)(O2)C(=O)C(=O)N2CCCC[C@H]2C(=O)O[C@H]([C@H](C)C[C@@H]2CC[C@@H](O)[C@H](OC)C2)CC[C@H](C)/C=C(\C)[C@@H](O)[C@@H](OC)C(=O)[C@H](C)C[C@H](C)/C=C/C=C/C=C/1C [Compound 3]	9.59	9.70	7.21	7.40
CCS(=O)(=O)N[C@@H]1C[C@@H]2CC[C@@H](C)[C@@](O)(O2)C(=O)C(=O)N2CCCC[C@H]2C(=O)O[C@H]([C@H](C)C[C@@H]2CC[C@@H](O)[C@H](OC)C2)CC[C@H](C)/C=C(\C)[C@@H](O)[C@@H](OC)C(=O)[C@H](C)C[C@H](C)/C=C/C=C/C=C/1C [Compound 4]	8.92	9.26	6.59	6.50
CO[C@@H]1C[C@H](C[C@@H](C)[C@@H]2CC[C@H](C)/C=C(\C)[C@@H](O)[C@@H](OC)C(=O)[C@H](C)C[C@H](C)/C=C/C=C/C=C(\C)[C@@H](NS(=O)(=O)C3CC3)C[C@@H]3CC[C@@H](C)[C@@](O)(O3)C(=O)C(=O)N3CCCC[C@H]3C(=O)O2)CC[C@H]1O [Compound 11]	9.03	9.54	7.20	7.35
CO[C@@H]1C[C@H](C[C@@H](C)[C@@H]2CC[C@H](C)/C=C(\C)[C@@H](O)[C@@H](OC)C(=O)[C@H](C)C[C@H](C)/C=C/C=C/C=C(\C)[C@H](NS(=O)(=O)C3CC3)C[C@@H]3CC[C@@H](C)[C@@](O)(O3)C(=O)C(=O)N3CCCC[C@H]3C(=O)O2)CC[C@H]1O [Compound 12]	8.96	9.41	6.87	6.93
CO[C@@H]1C[C@H](C[C@@H](C)[C@@H]2CC[C@H](C)/C=C(\C)[C@@H](O)[C@@H](OC)C(=O)[C@H](C)C[C@H](C)/C=C/C=C/C=C(\C)[C@H](NS(=O)(=O)CCCCl)C[C@@H]3CC[C@@H](C)[C@@](O)(O3)C(=O)C(=O)N3CCCC[C@H]3C(=O)O2)CC[C@H]1O [Compound 18]	8.18	9.14	6.36	6.24
CO[C@@H]1C[C@H](C[C@@H](C)[C@@H]2CC[C@H](C)/C=C(\C)[C@@H](O)[C@@H](OC)C(=O)[C@H](C)C[C@H](C)/C=C/C=C/C=C(\C)[C@@H](NS(C)(=O)=O)C[C@@H]3CC[C@@H](C)[C@@](O)(O3)C(=O)C(=O)N3CCCC[C@H]3C(=O)O2)CC[C@H]1OP(C)(C)=O [Compound 24]	9.28	9.27	7.05	7.60
CO[C@@H]1C[C@H](C[C@@H](C)[C@@H]2CC[C@H](C)/C=C(\C)[C@@H](O)[C@@H](OC)C(=O)[C@H](C)C[C@H](C)/C=C/C=C/C=C(\C)[C@@H](NS(C)(=O)=O)C[C@@H]3CC[C@@H](C)[C@@](O)(O3)C(=O)C(=O)N3CCCC[C@H]3C(=O)O2)CC[C@H]1OCCO [Compound 26]	10.07	9.08	7.10	7.33
CO[C@@H]1C[C@H](C[C@@H](C)[C@@H]2CC[C@H](C)/C=C(\C)[C@@H](O)[C@@H](OC)C(=O)[C@H](C)C[C@H](C)/C=C/C=C/C=C(\C)[C@@H](NCCS(=O)(=O)O)C[C@@H]3CC[C@@H](C)[C@@](O)(O3)C(=O)C(=O)N3CCCC[C@H]3C(=O)O2)CC[C@H]1O [Compound 38]	< 6.30	–	–	–
CO[C@@H]1C[C@H](C[C@@H](C)[C@@H]2CC[C@H](C)/C=C(\C)[C@@H](O)[C@@H](OC)C(=O)[C@H](C)C[C@H](C)/C=C/C=C/C=C(\C)[C@H](NCCS(=O)(=O)O)C[C@@H]3CC[C@@H](C)[C@@](O)(O3)C(=O)C(=O)N3CCCC[C@H]3C(=O)O2)CC[C@H]1O [Compound 39]	< 6.30	–	–	–
CO[C@@H]1C[C@H](C[C@@H](C)[C@@H]2CC[C@H](C)/C=C(\C)[C@@H](O)[C@@H](OC)C(=O)[C@H](C)C[C@H](C)/C=C/C=C/C=C(\C)[C@@H](NCCS(=O)(=O)O)C[C@@H]3CC[C@@H](C)[C@@](O)(O3)C(=O)C(=O)N3CCCC[C@H]3C(=O)O2)CC[C@H]1OCCO [Compound 40]	6.80	–	–	–
CO[C@@H]1C[C@H](C[C@@H](C)[C@@H]2CC[C@H](C)/C=C(\C)[C@@H](O)[C@@H](OC)C(=O)[C@H](C)C[C@H](C)/C=C/C=C/C=C(\C)[C@H](NCCS(=O)(=O)O)C[C@@H]3CC[C@@H](C)[C@@](O)(O3)C(=O)C(=O)N3CCCC[C@H]3C(=O)O2)CC[C@H]1OCCO [Compound 41]	7.48	–	–	–
CO[C@@H]1C[C@H](C[C@@H](C)[C@@H]2CC[C@H](C)/C=C(\C)[C@@H](O)[C@@H](OC)C(=O)[C@H](C)C[C@H](C)/C=C/C=C/C=C(\C)C(NC(=O)OC(C)(C)C)C[C@@H]3CC[C@@H](C)[C@@](O)(O3)C(=O)C(=O)N3CCCC[C@H]3C(=O)O2)CC[C@H]1O (some centres unmarked) [Intermediate 8]	9.74	–	–	–
